We go through three molecules from patent publication US20030008234A1, “Optical data carrier comprising a cyanine dye as light-absorbent compound in the information layer” (priority 2001, published 2003).

The nature of this data set: Solubility in TFP (2,2,3,3-tetrafluoropropanol). The data set is classed as physicochemical.

`CCN1CCS/C1=C/c1sc2ccccc2[n+]1C` registered a Solubility of 5%.

As to `CCN1CCS/C1=C/c1sc2ccccc2[n+]1C.[I-]` [Example 2], the Solubility worked out at 5%.

In turn, `CC(C)N(c1nn(C)/c(=N/C=C/C2=[N+](C)c3ccccc3C2(C)C)s1)C(C)C` [Example 1] returned a Solubility of more than 2%.
